Columns and labels:
C2C12 = test: Nucleotide concentration by HPLC during C2C12 differentiation; format: cell-based
Procedure: Supernatant and cell lysate are collected every day. Cells were lysated with a homemade buffer (1 mM phenylmethylsulfonyl fluoride, 1 mM protease inhibitor cocktail, 1 mM sodium orthovanadate, 1 mM sodium fluoride and 1 mM β-glicerophospate) and supernatant was used directly. A heat shock step was done at 98° C. for 2 min, and to avoid adenosine degradation 1 μM EHNA was added at the time of heating. All samples were centrifuged at 13000 g for 10 min at 4° C. and supernatants were collected and stored at −80° C. until use. Inosine, adenosine, AMP, ADP and ATP concentrations were determined with high performance liquid chromatography (HPLC) using a liquid chromatograph with a reversed phase column (Agilent 1100 Series Liquid Chromatography) and an UV detector set at 254 nm. Buffer composed of 0.1 mol/L KH2PO4 (pH 7.5) and 18% acetonitrile was run at 1.5 ml/min for 20 min. Compounds were identified and quantified by their retention times and peak areas of known standards, calibrated by spectrophotometry. […] The results have been corrected and expressed as mean±SEM. All results were calculated as a percentage of controls without differentiation state.

C2C12 myobundles = test: C2C12 3D myobundle with IL-6 ± dipyridamole; format: cell-based; conditions: IL-6 2.5 μg/ml ± dipyridamole 1 μM, 14 days; Sham 890±39
Text: C2C12 myobundles were fabricated following the protocol described by Bursac group (see references in ref. 44). Briefly, molds of polydimethylsiloxane (PDMS) designed for 12-well plates were created from Teflon masters with semicylindrical wells. These molds were sterilized, coated with 0.2% (w/v) Pluronic F-127 (Invitrogen) to prevent tissue adhesion, and paired with laser-cut Cerex frames (9×9 mm^2, 1-mm-wide rim) for myobundle attachment. The frames served as an anchor and guide during hydrogel compaction, ensuring uniaxial cell alignment. C2C12 cells were encapsulated in a hydrogel solution, including bovine fibrinogen (Sigma-Aldrich), matrigel (Corning), bovine thrombin (Sigma-Aldrich), and growth medium as concentration of bursac group indicates Referencias. The cell/hydrogel mixture was polymerized in the PDMS molds, and myobundles were cultured in a humidified chamber at 37° C., in 95% air and 5% CO2. After 4 days, the frames with myobundles were suspended in DM with treatments. DM and treatments are replaced every two days. GM and DM media contained 6-aminocaproic acid to reduce fibrinolysis. […] After the 14 days of treatment a bright-field photograph was taken to analyze the thickness of the fiber at its midpoint, and subsequently, they were embedded in OCT medium. […]

[1] = tested on: K/B×N serum transfer-induced arthritis; test: Tissues weight at collection, acute model of inflammation; format: in vivo, C57BL/6J mice
Procedure: Data collected for absolute weight are correlated with mouse weight to obtain relative weight (*indicates differences with the sham group and $ indicates differences with the arthritic group). WAT, white adipose tissue; BAT, brown adipose tissue. Values are presented as mean±SEM. […]
Mice were weighted weekly. Development of arthritis was assessed daily, and the severity of arthritis was assessed in each paw on a 4-point scale defined as follows: 0=normal appearance, 1=localized edema/erythema over one surface of the paw, 2=edema/erythema involving more than one surface of the paw, and 3-4=marked edema/erythema involving the whole paw. Scores of all 4 paws were added for a composite score. All motor activity tests were performed prior to serum inoculation and at the highest point of inflammation. Mice were euthanized on day 16 for acute inflammation model or 30 days for Inflammation resolved model. A representative photo of body structure and muscle of pawn were taken on this day. Gastronemius was collected for protein and RNA extraction. Tibialis and soleus were included for freeze histology following the indications of H. Meng (see references in ref. 44). Bones were prepared for micro-computed tomography (microCT) and histology. Blood was drawn and serum was isolated for measurement of inflammatory cytokines and C-reactive protein (CPR).

[2] = tested on: K/B×N serum transfer-induced arthritis; test: Cytokine and chemokine array in gastronemius muscle; format: in vivo, C57BL/6J mice; conditions: acute model, RA + Dipy
Procedure: The cytokines concentration was measured by fluorescence using GenePix 4000B following manufacture protocol for serum and frozen samples. Serum samples were used at 2-fold sample dilution. Frozen gastronemius were crushed using a mortar and a pestle cooled with liquid nitrogen. Next, gastronemius were homogenized in a sonicator and the protein isolated in the supernatant quantified with BCA assay. We used 100 μL (1 mg/ml) of total gastronemius protein for cytokine and chemokine array assay.

[3] = Body composition by DXA scan; format: in vivo, C57BL/6J mice; conditions: healthy mice, dipy treatment alone, 2 weeks
Procedure: Previously to arthritis induction and sacrifice day, all mice underwent DXA scan. For DXA analysis, a Lunar PIXImus densitometer (software version 2.10) was calibrated using a hydroxyapatite phantom provided by the manufacturer (Lunar Corp, Madison, WI). Subsequently, mice were anesthetized and whole-body scans were conducted. Data analysis consisted of whole-body lean mass, fat mass, bone mineral density and bone mineral content. […] Previously to arthritis induction and sacrifice day, all mice underwent DXA scan. For DXA analysis, a Lunar PIXImus densitometer (software version 2.10) was calibrated using a hydroxyapatite phantom provided by the manufacturer (Lunar Corp, Madison, WI). Subsequently, mice were anesthetized and whole-body scans were conducted. Data analysis consisted of whole-body lean mass, fat mass, bone mineral density and bone mineral content.

[4] = mice, dipyridamole 25 mg/Kg/day with tenofovir; cited from earlier work

## OCCN(CCO)c1nc(N2CCCCC2)c2nc(N(CCO)CCO)nc(N3CCCCC3)c2n1 [dipyridamole, 2,6-bis(Diethanolamino)-4,8-dipiperidinopyrimido[5,4-d]pyrimidine]
C2C12; 1 μM each, day 4, control 14.7±0.5
  Extracellular ATP: did not modify
C2C12; 1 μM, day 4, control 10.87±0.73
  Intracellular adenosine: 13.76 ± 1.13 nM
C2C12; 1 μM, day 4, control 11.07±0.54
  Intracellular inosine: 14.17 ± 1.75 nM
C2C12; 1 μM, day 4, control 12.10±0.73
  Intracellular AMP: 18.53 ± 1.13 nM
C2C12; 1 μM, day 4 of differentiation, control 11.6±0.81
  Extracellular adenosine: 17.33 ± 0.47 nM
C2C12 myobundles
  Myobundle thickness: did not lead to an alteration of the muscle fiber
[1]; RA + Dipy
  BAT, Absolute weight: 0.157 ± 0.005 g
  EDL, Absolute weight: 0.010 ± 0.013 g
  Gastronemius, Absolute weight: 0.123 ± 0.004 g
  Quadriceps, Absolute weight: 0.15 ± 0.01 g
  Soleus, Absolute weight: 0.008 ± 0.001 g
  Tibialis, Absolute weight: 0.056 ± 0.004 g
  WAT, Absolute weight: 0.198 ± 0.018 g
[1]; RA mice + Dipy 25 mg/kg/day
  Bodyweight, Absolute weight: 22.12 ± 0.18 g
[1]; healthy mice, Dipy alone
  BAT, Absolute weight: 0.16 ± 0.003 g
  EDL, Absolute weight: 0.011 ± 0.008 g
  Gastronemius, Absolute weight: 0.174 ± 0.007 g
  Soleus, Absolute weight: 0.011 ± 0.002 g
  Tibialis, Absolute weight: 0.08 ± 0.009 g
  WAT, Absolute weight: 0.22 ± 0.02 g
[1]; healthy mice, Dipy alone 25 mg/kg/day
  Bodyweight, Absolute weight: 24.26 ± 1.72 g
[2]
  Muscle IL-1α: 3.5 ± 0.2 pg/mL
  Muscle IL-1β: 13.9 ± 1.9 $$ pg/ml
  Muscle IL-2: 8 ± 2.8 pg/mL
  Muscle IL-3: 1 ± 0.2 pg/mL
  Muscle IL-4: 23 ± 1.9 pg/mL
  Muscle IL-5: 5.5 ± 0.8 pg/mL
  Muscle IL-6: 6.9 ± 0.6 **/$ pg/ml
  Muscle IL-9: 13.1 ± 2.5 pg/mL
  Muscle IL-10: 32.5 ± 2.3 **/ $ pg/ml
  Muscle IL-13: 11.3 ± 0.9 pg/mL
  Muscle IL-17: 7 ± 1.3 pg/mL
  Muscle INFγ: 48.7 ± 4.8 */$ pg/ml
  Muscle KC (CXCL1): 1.2 ± 0.7 pg/mL
  Muscle M-CSF: 11.8 ± 1.6 pg/mL
  Muscle RANTES: 4.7 ± 0.5 pg/mL
  Muscle TNF-α: 24.6 ± 1.2 pg/mL
  Muscle VEGF: 122 ± 12.9 pg/mL
[2]; listed as Dipy
  Muscle MCP-1: 43.8 ± 9.9 */$ pg/ml
[2]; listed as dipy
  Muscle MCP-1: 43.8 ± 9.9 pg/mL
[3]
  Body composition (DXA): did not produced alterations in body composition
[4]
  Body weight (tenofovir-induced loss): recovered

— patent US20260263468A1 (Fundación Instituto de Investigación Sanitaria Fundación …, priority 2023, published 2026)
